Results on five molecules are retold here after patent US12054498B2, “Heteroaromatic macrocyclic ether chemotherapeutic agents” (Nuvalent, Inc., priority 2020, dated 2024).

Like-named read-outs stand apart in the source and are kept apart here.

For data set [1] the following is noted: from CCn1ccc(C(=O)c2nn(C)nc2-c2ccc(F)cc2[C@@H](C)Oc2cc(Br)cnc2N)c1; cc_pd bond; 12-membered ring; Pd(OAc)2/cataCXium A/KOAc; 2-methyl-2-butanol; 38.0 mM; 120.0 °C.
For data set [2] the following is noted: cc_pd bond, Pd(OAc)2/cataCXium A, KOAc, 2-methyl-2-butanol, 120.0 °C.
The conditions of data set [3]: from Cc1nn(CC2CC2)cc1Cc1nn(C)nc1-c1ccc(F)cc1C(CO[Si](C)(C)C(C)(C)C)Oc1cc(Br)cnc1N; cc_pd bond; 12-membered ring; Pd(OAc)2/cataCXium A/KOAc; 2-methyl-2-butanol; 30.0 mM; 120.0 °C.
In data set [4] the test system is ROS1-positive NSCLC. The following applies: ROS1-positive NSCLC patients; cited from earlier work.
For data set [5], the target named is T1, Ba/F3 cells CD74-ROS1 wild-type (wt) (Homo sapiens, UniProt P08922).
T1 construct: fusion of the C-terminus of ROS1 with the N-terminus of various partner proteins; host or cells: Ba/F3 (RIKEN), retroviral pMSCV-puro; the other entry of the earlier key: CD74 (P04233, HLA class II histocompatibility antigen gamma chain)
T1 sequence (P08922 1883-2347 limits assumed): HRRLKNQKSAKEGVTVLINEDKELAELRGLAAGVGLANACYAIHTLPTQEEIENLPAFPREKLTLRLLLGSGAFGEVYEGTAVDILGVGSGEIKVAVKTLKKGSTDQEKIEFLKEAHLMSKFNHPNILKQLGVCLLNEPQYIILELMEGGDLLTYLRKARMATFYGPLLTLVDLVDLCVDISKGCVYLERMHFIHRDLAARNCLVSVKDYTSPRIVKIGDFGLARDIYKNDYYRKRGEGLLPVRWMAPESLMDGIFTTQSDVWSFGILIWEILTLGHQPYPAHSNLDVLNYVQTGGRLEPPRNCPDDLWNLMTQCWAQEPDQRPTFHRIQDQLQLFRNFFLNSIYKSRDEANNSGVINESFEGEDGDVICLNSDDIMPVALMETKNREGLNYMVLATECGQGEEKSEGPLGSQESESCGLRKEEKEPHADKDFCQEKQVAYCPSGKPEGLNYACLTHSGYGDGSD
Kind of data set: Ba/F3 cell proliferation assay, CD74-ROS1 wild-type. The data set is classed as cell-based. The following applies: 72 hours, CellTiter-Glo. In short, it runs like this:
(§1)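 IL-3-independent Ba/F3 CD74-ROS1 lines, puromycin-selected monoclones; 1,000 cells/well, plated 1 d before dosing; 3-fold serial dilutions, 72 h; CellTiter-Glo luminescence; IC50 by 4-parameter logistic regression.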
(In general: In ATP-based viability assays light output follows the ATP content of the culture.)

Data set [6] deals with T2, ROS1-wt (Homo sapiens, UniProt P08922).
T2 construct: purchased Carna 08-163
T2 sequence (P08922 1945-2222 limits assumed): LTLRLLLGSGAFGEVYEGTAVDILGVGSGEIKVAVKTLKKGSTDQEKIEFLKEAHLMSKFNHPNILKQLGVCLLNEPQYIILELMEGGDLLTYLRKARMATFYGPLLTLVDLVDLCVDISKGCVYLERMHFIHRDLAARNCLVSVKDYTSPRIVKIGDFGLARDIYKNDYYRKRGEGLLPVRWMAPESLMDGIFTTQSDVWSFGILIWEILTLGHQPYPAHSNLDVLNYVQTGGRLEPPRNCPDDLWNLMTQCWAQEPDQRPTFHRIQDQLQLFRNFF
Kind of data set: Biochemical kinase assay, ROS1-wt kinase domain. The following applies: apparent inhibitory constant, Morrison equation; ATP 2 mM in substrate solution; read-out: ROS1-wt Ki^app. In outline:
(§2)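 Kinetic read: 485 nm, 2-min intervals, 120 min, 30 °C. Substrate mix — ATP 2 mM, AQT0101 26 μM, HEPES 50 mM pH 7.5, MgCl2 10 mM. Output: Ki^app, Morrison equation.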

Data set [7] concerns the target T3, Ba/F3 cells CD74-ROS1 G2032R (Homo sapiens, UniProt P08922, G2032R).
T3 construct: fusion of the C-terminus of ROS1 with the N-terminus of various partner proteins; host or cells: Ba/F3 (RIKEN), retroviral pMSCV-puro; the other entry of the earlier key: CD74 (P04233, HLA class II histocompatibility antigen gamma chain)
In words: Ba/F3 cell proliferation assay, CD74-ROS1 G2032R. The data set is classed as cell-based. The following applies: 72 hours, CellTiter-Glo. In outline:
as §1

For data set [8], the target named is T4, Ba/F3 cells EML4-ALK wt (variant 1) (Homo sapiens, UniProt Q9UM73).
T4 construct: echinoderm microtubule-associated protein-like 4 (EML4) gene and the ALK tyrosine kinase domain; host or cells: Ba/F3 (RIKEN), retroviral pMSCV-puro; the other entry of the earlier key: EML4 (Q9HC35, Echinoderm microtubule-associated protein-like 4)
T4 sequence (Q9UM73 with tags, fused parts or gaps): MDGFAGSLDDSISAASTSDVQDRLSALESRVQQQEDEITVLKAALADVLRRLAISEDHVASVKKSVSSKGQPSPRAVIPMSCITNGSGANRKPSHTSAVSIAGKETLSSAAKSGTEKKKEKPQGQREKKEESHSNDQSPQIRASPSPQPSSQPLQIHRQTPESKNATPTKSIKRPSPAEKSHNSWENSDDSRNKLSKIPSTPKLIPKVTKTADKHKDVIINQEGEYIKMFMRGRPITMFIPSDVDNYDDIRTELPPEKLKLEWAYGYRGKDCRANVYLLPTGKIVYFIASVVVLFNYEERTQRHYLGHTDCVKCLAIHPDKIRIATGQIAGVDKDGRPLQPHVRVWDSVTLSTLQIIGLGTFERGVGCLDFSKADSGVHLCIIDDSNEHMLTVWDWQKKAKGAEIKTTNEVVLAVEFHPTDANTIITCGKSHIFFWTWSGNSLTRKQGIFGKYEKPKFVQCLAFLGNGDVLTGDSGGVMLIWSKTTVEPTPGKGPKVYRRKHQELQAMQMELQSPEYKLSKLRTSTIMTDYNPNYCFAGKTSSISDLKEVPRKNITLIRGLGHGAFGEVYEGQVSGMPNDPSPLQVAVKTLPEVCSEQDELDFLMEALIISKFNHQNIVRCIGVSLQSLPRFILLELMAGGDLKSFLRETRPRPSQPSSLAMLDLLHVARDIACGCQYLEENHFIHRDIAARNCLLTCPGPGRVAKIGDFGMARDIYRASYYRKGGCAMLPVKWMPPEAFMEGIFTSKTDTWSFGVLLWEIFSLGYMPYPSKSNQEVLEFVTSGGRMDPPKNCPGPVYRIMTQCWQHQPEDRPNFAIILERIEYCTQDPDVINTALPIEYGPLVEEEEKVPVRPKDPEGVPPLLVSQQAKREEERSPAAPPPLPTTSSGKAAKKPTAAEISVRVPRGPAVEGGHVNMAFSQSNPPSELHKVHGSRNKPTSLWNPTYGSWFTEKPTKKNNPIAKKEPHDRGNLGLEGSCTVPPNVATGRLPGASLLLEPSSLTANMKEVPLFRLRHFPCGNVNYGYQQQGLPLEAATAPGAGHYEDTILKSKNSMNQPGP
Kind of data set: Ba/F3 cell proliferation assay, EML4-ALK wt (variant 1). In kind it is cell-based. The following applies: 72 hours, CellTiter-Glo. In short, it runs like this:
(§3)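 IL-3-independent Ba/F3 monoclones, puromycin-selected, transduced with fusion genes; 1,000 cells/well, 1 day rest, 3-fold compound series, 72 h. Read: CellTiter-Glo luminescence. IC50 from % inhibition vs concentration, 4-parameter logistic.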

The target in data set [9] is T5, TRKA-wt (Homo sapiens, UniProt P04629).
T5 construct: or TRKA-wt (1 nM, BPS Bio, 40280) kinase domains in buffer; purchased BPS Bio 40280
T5 sequence (P04629 510-781 limits assumed): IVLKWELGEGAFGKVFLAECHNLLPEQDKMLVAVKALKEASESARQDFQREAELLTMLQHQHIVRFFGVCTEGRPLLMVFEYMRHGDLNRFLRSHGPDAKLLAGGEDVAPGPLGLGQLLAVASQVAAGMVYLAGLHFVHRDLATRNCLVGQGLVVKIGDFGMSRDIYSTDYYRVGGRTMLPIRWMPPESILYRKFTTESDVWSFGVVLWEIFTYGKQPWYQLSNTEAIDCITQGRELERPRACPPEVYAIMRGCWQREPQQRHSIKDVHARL
In words: Biochemical kinase assay, TRKA-wt kinase domain. The following applies: apparent inhibitory constant, Morrison equation; ATP 2 mM in substrate solution; read-out: TRKA-wt Ki^app. In short, it runs like this:
(§4)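 Compound in DMSO added first, then substrate solution (ATP 2 mM; AQT0101 or AQT0104, 26 μM; pH 7.5 HEPES, 10 mM MgCl2), then kinase solution with enzyme at 0.5–3 nM depending on construct. Kinetic read every 2 min for 120 min at 30° C; Ki^app by Morrison regression.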

For data set [10], the system named is TPM3-NTRK1-wt IC50 / primary target IC50 (e.g. CD74-ROS1-wt). Kind of data set: TRKA selectivity in Ba/F3 cells (TRKA potency divided by primary target potency). In kind it is cell-based. The following applies: for TPM3-NTRK1-wt/CD74-ROS1-G2032R selectivity ratio: TRKA potency / CD74-ROS1-G2032R potency; for TPM3-NTRK1-wt/CD74-ROS1-wt selectivity ratio: TRKA potency / CD74-ROS1-wt potency; for TPM3-NTRK1-wt/EML4-ALK-L1196M-G1202R selectivity ratio: TRKA potency / EML4-ALK-L1196M-G1202R potency; for TPM3-NTRK1-wt/EML4-ALK-wt selectivity ratio: TRKA potency / EML4-ALK-wt potency. Here is the method:
TRKA selectivity was calculated by dividing a compound's TRKA potency by its primary target potency (e.g. TPM3-NTRK1-wt IC50/CD74-ROS1-wt IC50). Compound selectivity can be interpreted by binning ratio values: bin A for very high selectivity, ratio >30-fold; bin B for high selectivity, ratio >10-fold; bin C for moderate selectivity, ratio ≥1; and bin D for low selectivity, ratio <1. […] (nd=not determined).

For data set [11], the target named is T6, Ba/F3 cells EML4-ALK L1196M/G1202R (variant 1) (Homo sapiens, UniProt Q9UM73, G1202R/L1196M).
T6 construct: echinoderm microtubule-associated protein-like 4 (EML4) gene and the ALK tyrosine kinase domain; host or cells: Ba/F3 (RIKEN), retroviral pMSCV-puro; the other entry of the earlier key: EML4 (Q9HC35, Echinoderm microtubule-associated protein-like 4)
T6 sequence (Q9UM73 with tags, fused parts or gaps L1196M/G1202R): as the sequence (Q9UM73 with tags, fused parts or gaps) above, with L635M, G641R counted along it
Kind of data set: Ba/F3 cell proliferation assay, EML4-ALK L1196M/G1202R (variant 1). In kind it is cell-based. The following applies: 72 hours, CellTiter-Glo. In outline: as §3

The target of data set [12] is T7, ALK-wt (Homo sapiens, UniProt Q9UM73).
T7 construct: purchased Carna 08-518
T7 sequence (Q9UM73 1116-1392 limits assumed): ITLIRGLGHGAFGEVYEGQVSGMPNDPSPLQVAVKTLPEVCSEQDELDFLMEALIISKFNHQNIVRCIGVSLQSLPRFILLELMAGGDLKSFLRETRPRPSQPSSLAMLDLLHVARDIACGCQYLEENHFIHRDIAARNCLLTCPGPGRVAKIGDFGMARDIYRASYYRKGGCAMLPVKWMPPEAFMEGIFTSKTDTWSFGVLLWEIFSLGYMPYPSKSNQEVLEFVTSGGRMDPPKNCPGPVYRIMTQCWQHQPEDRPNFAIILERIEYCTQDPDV
Kind of data set: Biochemical kinase assay, ALK-wt kinase domain. The following applies: apparent inhibitory constant, Morrison equation; ATP 2 mM in substrate solution; read-out: ALK-wt Ki^app. In short, it runs like this: as §4

In data set [13] the target is T8, ROS1-G2032R (Homo sapiens, UniProt P08922, G2032R).
T8 construct: purchased SignalChem R14-12BG
T8 sequence (P08922 1945-2222 G2032R limits assumed): as the sequence (P08922 1945-2222 limits assumed) above, with G88R counted along it
Kind of data set: Biochemical kinase assay, ROS1-G2032R kinase domain. The following applies: apparent inhibitory constant, Morrison equation; ATP 2 mM in substrate solution; read-out: ROS1-G2032R Ki^app. In short, it runs like this: as §2

The target of data set [14] is T9, ALK L1196M/G1202R (Homo sapiens, UniProt Q9UM73, G1202R/L1196M).
T9 construct: purchased SignalChem A19-12NG
T9 sequence (Q9UM73 1116-1392 L1196M/G1202R limits assumed): as the sequence (Q9UM73 1116-1392 limits assumed) above, with L81M, G87R counted along it
Kind of data set: Biochemical kinase assay, ALK L1196M/G1202R kinase domain. The following applies: apparent inhibitory constant, Morrison equation; ATP 2 mM in substrate solution; read-out: ALK-L1196M-G1202R Ki^app. In outline:
as §4

For data set [15], the target named is T10, Ba/F3 cells TPM3-TRKA (Homo sapiens, UniProt P04629).
T10 construct: host or cells: Ba/F3 (RIKEN), retroviral pMSCV-puro; the other entry of the earlier key: TPM3 (P06753, Tropomyosin alpha-3 chain)
T10 sequence (P04629 510-796 limits assumed): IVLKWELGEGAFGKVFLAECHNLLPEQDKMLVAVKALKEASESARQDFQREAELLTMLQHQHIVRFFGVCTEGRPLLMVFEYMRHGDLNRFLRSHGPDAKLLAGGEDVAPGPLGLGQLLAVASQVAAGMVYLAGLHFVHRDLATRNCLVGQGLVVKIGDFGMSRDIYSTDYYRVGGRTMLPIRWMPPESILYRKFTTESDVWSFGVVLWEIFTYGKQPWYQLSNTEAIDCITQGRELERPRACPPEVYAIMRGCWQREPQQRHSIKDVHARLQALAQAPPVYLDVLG
In words: Ba/F3 cell proliferation assay, TPM3-TRKA. The data set is classed as cell-based. The following applies: 72 hours, CellTiter-Glo, read-out: TPM3-NTRK1-wt IC50. In outline:
as §3

T3 sequence (P08922 1883-2347 G2032R limits assumed): as the sequence (P08922 1883-2347 limits assumed) above, with G150R counted along it

Turning to `CCn1ccc2c1-c1cnc(N)c(c1)O[C@H](C)c1cc(F)ccc1-c1nn(C)nc1C2=O`, the ring closure, yield after HPLC in data set [1] came out at 15%. Moreover, the ring closure, yield of all isomers in data set [2] (from CCn1ccc(C(=O)c2nn(C)nc2-c2ccc(F)cc2[C@@H](C)Oc2cc(Br)cnc2N)c1, 38.0 mM, 12.0 h) was found to be 15%.
Take `Cc1nn(CC2CC2)c2c1Cc1nn(C)nc1-c1ccc(F)cc1C(CO[Si](C)(C)C(C)(C)C)Oc1cc-2cnc1N` (stereo not shown): the ring closure, yield of all isomers in data set [2] (from Cc1nn(CC2CC2)cc1Cc1nn(C)nc1-c1ccc(F)cc1C(CO[Si](C)(C)C(C)(C)C)Oc1cc(Br)cnc1N, 30.0 mM) turned out to be 23%. In addition, the ring closure, isolated yield in data set [3] stood at 23%.
Regarding `C[C@@H](Oc1cc(-c2cnn(C3CCNCC3)c2)cnc1N)c1c(Cl)ccc(F)c1Cl` [Crizotinib, crizotinib], in data set [4], the median progression-free survival is 9-19 months and the overall response rate was 60-80%.
One may read the IC50 as the concentration needed to halve the response being measured. As to `C[C@H]1Oc2cc(cnc2N)-c2c(CC3CC3)nn(C)c2Cn2ncnc2-c2ccc(F)cc21` [Example 99, (19R)-3-(cyclopropylmethyl)-16-fluoro-5,19-dimethyl-20-oxa-4,5,8,9,11,23-hexaazapentacyclo[19.3.1.0^2,^6.0^8,^12.0^13,^18]pentacosa-1(24),2(6),3,9,11,13,15.17,21(25),22-decaen-22-amine], the IC50 was 0.1 to 50 nM in data set [5]; 0.1 to 50 nM in data set [7]; 0.1 to 50 nM in [8]; 50 to 500 nM in data set [11]; over 500 nM in data set [15]. In addition, the Ki in data set [6] is under 50 nM; in data set [9] it was over 500 nM; in [12], under 50 nM; in [13], under 50 nM; in [14], under 50 nM. In addition, in data set [10], the TPM3-NTRK1-wt/CD74-ROS1-G2032R selectivity ratio entry is “A (bin A for very high selectivity, ratio >30-fold)”. For the same molecule, the TPM3-NTRK1-wt/CD74-ROS1-wt selectivity ratio result in data set [10] was “A (bin A for very high selectivity, ratio >30-fold)”. Further, the TPM3-NTRK1-wt/EML4-ALK-L1196M-G1202R selectivity ratio entry in data set [10] is on record as “B (bin B for high selectivity, ratio >10-fold)”. Also, the TPM3-NTRK1-wt/EML4-ALK-wt selectivity ratio result in data set [10] is “A (bin A for very high selectivity, ratio >30-fold)”.
In the case of `C[C@H]1Oc2cc(cnc2N)-c2c(CC3CC3)nn(C)c2Cc2nn(C)nc2-c2ccc(F)cc21` [Example 100, (19R)-3-(cyclopropylmethyl)-16-fluoro-5,10.19-trimethyl-20-oxa-4,5,9,10,11 23-hexaazapentacyclo[19.3.1.0^2,^6.0^8,^12.0^13,^18]pentacosa-1(24),2(6) 3,8,11,13,15,17,21(25),22-decaen-22-amine], the IC50 in data set [5] is 0.1 to 50 nM; in data set [7], 0.1 to 50 nM; in data set [8] it was 0.1 to 50 nM; in data set [11], 0.1 to 50 nM; in data set [15] it was over 500 nM. Also, the Ki is under 50 nM in data set [6]; over 500 nM in [9]; under 50 nM in [12]; under 50 nM in [13]; under 50 nM in data set [14]. For the same molecule, the TPM3-NTRK1-wt/CD74-ROS1-G2032R selectivity ratio entry in data set [10] was “A (bin A for very high selectivity, ratio >30-fold)”. The TPM3-NTRK1-wt/CD74-ROS1-wt selectivity ratio entry in data set [10] is “A (bin A for very high selectivity, ratio >30-fold)”. Moreover, in [10], the TPM3-NTRK1-wt/EML4-ALK-L1196M-G1202R selectivity ratio result is on record as “A (bin A for very high selectivity, ratio >30-fold)”. The TPM3-NTRK1-wt/EML4-ALK-wt selectivity ratio entry in data set [10] is listed as “A (bin A for very high selectivity, ratio >30-fold)”.
